Reference: US9416115B2, “Fused heterocyclic compounds as ion channel modulators” (Gilead Sciences, Inc., priority 2013, dated 2016)
Like-named read-outs stand apart in the source and are kept apart here.

Tests used:
[1] = target: wild-type human cardiac sodium channel, hNav1.5 (Homo sapiens, UniProt Q14524); experiment: Peak INa screening assay (tonic block and use-dependent block); type: cell-based
Procedure, shortened: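 Whole-cell automated patch clamp, 23-25° C, on hNav1.5 alpha-only HEK293 cells with Na+ lowered to 40 mM by choline. Block measured after two additions of 1 or 3 μM compound and 200 s wait: tonic at 0.1 Hz, use-dependent at 50th pulse (−20 mV, 20 ms, 3 Hz) from −100 mV, relative to drug-free, rundown corrected.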

hNaV1.2 (SCN2A) = target: T1, hNaV1.2 (SCN2A) (Homo sapiens, UniProt Q99250); experiment: Use-dependent inhibition of the CNS Nav1.2 sodium channel; type: cell-based; details: use-dependent block, 25 Hz, pulse 20, read-out: Nav1.2 UDB 25 Hz 10 uM
T1 construct: expressed in transfected cells
Procedure: HEK-293 cells stably expressing wild-type (WT) hNaV1.2 (SCN2A NCBI # NM_021007.2, SCN1B NCBI # NM_001037.4, SCN2B NCBI # NM_004588.2) were used to record INa. Cells are maintained with standard tissue culture procedures and stable channel expression is maintained with 800 ug/mL G418 and 3 ug/mL Puromycin in the culture medium. Unless otherwise noted, all reagents are purchased from Sigma-Aldrich (St Louis, Mo., U.S.A.).
Assays measuring Use-Dependent Block (UDB) of Nav1.2 are performed on an automated electrophysiology platform, QPatch 16X or QPatch HT (Sophion Bioscience, Copenhagen, Denmark), using the whole cell patch clamp technique to measure currents through the cell membrane. Series resistance compensation is set to 100% and series resistance and whole-cell compensation are performed automatically. Currents stored in the Sophion Bioscience Oracle database (Sophion Bioscience, Copenhagen, Denmark). Analysis is performed using QPatch Assay software and data are compiled in Excel 2010 (Microsoft, Seattle, Wash., U.S.A.).
The internal (pipette) solution consists of (in mM) 105 CsF, 10 NaF, 20 CsCl, 2 EGTA, 10 HEPES, 10 Dextrose with a pH of 7.35 and osmolarity of 300 mOsmol/kg. The external (bath) solution contains in (mM): 145 NaCl, 4 KCl, 1.8 CaCl2, 1 MgCl2, 10 dextrose, 10 HEPES, with a pH of 7.35 and osmolarity of 310 mOsmol/kg. Experiments are carried out at 23-25° C.
Compound stocks are routinely made by the Gilead Sample Bank in vials to 10 mM in dimethyl sulfoxide (DMSO). In some cases, when compounds are not soluble in DMSO, they are made in 100% ethanol. Stocks are sonicated as necessary. […]
Cells are allowed to stabilize for 10 min after establishment of the whole-cell configuration before current is measured. The test compound is applied 2 times at 60 second intervals. After the second compound addition, a 200 second wait period was imposed to allow for equilibration. Leak currents are subtracted by using an online P/4 procedure and all currents are low-pass Bessel filtered at 5 kHz and digitized at […].
Results are presented as mean percentage inhibition.
Use-dependent block of Nav1.2 peak current is measured during pulse number 20 of a voltage pulse train (0 mV, 20 ms, 20 pulses, 25 Hz) from a holding potential of −120 mV.
Currents are normalized to the peak current recorded in response to the first pulse in each frequency train. The voltage protocol for UDB was performed in the absence and presence of compound and percentage inhibition was calculated with respect to the compound free condition.

[2] = tonic block of Peak INa, 0.1 Hz, holding -100 mV, read-out: Peak TB 3 uM
[3] = use-dependent block of Peak INa, 3 Hz, pulse 50, read-out: Peak UDB 3 Hz 3 uM

T1 sequence (Q99250 whole entry): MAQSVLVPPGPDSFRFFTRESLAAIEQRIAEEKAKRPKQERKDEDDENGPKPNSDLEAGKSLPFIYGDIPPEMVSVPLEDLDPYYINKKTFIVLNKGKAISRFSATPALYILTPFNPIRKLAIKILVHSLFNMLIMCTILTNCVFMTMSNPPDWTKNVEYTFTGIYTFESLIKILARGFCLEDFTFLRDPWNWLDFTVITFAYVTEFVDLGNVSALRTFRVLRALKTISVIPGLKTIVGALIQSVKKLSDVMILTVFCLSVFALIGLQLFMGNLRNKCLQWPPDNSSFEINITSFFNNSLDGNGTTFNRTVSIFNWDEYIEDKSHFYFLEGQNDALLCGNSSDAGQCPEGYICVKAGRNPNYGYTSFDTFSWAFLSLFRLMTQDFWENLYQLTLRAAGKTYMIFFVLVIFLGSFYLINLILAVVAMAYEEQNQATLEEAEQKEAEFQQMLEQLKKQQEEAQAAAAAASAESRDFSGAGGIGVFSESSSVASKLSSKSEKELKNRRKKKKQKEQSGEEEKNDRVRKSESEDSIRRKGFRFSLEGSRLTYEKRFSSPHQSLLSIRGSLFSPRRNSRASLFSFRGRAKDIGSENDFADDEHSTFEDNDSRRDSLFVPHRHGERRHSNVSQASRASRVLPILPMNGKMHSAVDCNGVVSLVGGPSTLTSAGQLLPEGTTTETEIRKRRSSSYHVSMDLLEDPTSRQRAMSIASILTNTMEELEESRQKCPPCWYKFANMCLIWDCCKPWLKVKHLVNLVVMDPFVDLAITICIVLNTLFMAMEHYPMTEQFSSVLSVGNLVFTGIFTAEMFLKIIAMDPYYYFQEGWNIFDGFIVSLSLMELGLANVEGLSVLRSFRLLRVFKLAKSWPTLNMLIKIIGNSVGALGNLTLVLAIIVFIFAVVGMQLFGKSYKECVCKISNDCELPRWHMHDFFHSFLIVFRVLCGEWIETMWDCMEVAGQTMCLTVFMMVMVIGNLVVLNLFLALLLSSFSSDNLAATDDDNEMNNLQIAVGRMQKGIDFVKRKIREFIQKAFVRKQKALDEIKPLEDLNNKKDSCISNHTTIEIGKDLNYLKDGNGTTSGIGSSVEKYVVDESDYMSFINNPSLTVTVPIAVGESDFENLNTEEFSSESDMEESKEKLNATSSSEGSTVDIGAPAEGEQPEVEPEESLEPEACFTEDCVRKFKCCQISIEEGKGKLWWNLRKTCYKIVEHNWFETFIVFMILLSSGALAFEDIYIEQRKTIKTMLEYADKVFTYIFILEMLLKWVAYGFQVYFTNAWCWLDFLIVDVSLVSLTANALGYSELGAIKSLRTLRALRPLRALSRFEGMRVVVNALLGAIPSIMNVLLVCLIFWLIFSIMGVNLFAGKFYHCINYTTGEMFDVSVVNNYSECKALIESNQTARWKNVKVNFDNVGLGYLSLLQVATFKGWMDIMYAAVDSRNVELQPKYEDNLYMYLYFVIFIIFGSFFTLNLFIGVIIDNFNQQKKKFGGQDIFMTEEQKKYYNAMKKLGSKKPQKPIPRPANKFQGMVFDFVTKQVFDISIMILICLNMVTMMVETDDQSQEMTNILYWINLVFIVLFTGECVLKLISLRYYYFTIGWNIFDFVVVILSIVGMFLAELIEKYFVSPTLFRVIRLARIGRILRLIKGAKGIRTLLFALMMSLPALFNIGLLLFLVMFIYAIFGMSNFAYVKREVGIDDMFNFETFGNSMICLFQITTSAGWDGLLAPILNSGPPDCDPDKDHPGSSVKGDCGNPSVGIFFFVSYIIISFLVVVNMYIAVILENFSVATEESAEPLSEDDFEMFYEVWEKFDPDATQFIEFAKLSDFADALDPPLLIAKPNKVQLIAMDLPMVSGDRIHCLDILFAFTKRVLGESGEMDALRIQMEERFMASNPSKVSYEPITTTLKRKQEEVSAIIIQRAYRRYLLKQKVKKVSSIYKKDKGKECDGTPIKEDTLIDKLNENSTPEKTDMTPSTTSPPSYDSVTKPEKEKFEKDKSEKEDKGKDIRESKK
T1 sequence (Q07699 19-218 partner): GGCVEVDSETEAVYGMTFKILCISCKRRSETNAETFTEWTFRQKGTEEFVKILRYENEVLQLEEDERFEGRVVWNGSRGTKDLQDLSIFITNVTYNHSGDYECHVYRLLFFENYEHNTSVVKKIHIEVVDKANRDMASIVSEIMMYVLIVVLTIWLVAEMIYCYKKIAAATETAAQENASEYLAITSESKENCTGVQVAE
T1 sequence (O60939 30-215 partner): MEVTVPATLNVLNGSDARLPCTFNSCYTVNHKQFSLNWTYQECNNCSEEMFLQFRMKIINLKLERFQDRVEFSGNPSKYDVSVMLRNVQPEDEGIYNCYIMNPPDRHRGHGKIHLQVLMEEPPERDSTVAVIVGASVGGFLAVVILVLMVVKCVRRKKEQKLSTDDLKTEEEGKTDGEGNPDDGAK
Chain of wild-type human cardiac sodium channel, hNav1.5 (Q14524 whole entry): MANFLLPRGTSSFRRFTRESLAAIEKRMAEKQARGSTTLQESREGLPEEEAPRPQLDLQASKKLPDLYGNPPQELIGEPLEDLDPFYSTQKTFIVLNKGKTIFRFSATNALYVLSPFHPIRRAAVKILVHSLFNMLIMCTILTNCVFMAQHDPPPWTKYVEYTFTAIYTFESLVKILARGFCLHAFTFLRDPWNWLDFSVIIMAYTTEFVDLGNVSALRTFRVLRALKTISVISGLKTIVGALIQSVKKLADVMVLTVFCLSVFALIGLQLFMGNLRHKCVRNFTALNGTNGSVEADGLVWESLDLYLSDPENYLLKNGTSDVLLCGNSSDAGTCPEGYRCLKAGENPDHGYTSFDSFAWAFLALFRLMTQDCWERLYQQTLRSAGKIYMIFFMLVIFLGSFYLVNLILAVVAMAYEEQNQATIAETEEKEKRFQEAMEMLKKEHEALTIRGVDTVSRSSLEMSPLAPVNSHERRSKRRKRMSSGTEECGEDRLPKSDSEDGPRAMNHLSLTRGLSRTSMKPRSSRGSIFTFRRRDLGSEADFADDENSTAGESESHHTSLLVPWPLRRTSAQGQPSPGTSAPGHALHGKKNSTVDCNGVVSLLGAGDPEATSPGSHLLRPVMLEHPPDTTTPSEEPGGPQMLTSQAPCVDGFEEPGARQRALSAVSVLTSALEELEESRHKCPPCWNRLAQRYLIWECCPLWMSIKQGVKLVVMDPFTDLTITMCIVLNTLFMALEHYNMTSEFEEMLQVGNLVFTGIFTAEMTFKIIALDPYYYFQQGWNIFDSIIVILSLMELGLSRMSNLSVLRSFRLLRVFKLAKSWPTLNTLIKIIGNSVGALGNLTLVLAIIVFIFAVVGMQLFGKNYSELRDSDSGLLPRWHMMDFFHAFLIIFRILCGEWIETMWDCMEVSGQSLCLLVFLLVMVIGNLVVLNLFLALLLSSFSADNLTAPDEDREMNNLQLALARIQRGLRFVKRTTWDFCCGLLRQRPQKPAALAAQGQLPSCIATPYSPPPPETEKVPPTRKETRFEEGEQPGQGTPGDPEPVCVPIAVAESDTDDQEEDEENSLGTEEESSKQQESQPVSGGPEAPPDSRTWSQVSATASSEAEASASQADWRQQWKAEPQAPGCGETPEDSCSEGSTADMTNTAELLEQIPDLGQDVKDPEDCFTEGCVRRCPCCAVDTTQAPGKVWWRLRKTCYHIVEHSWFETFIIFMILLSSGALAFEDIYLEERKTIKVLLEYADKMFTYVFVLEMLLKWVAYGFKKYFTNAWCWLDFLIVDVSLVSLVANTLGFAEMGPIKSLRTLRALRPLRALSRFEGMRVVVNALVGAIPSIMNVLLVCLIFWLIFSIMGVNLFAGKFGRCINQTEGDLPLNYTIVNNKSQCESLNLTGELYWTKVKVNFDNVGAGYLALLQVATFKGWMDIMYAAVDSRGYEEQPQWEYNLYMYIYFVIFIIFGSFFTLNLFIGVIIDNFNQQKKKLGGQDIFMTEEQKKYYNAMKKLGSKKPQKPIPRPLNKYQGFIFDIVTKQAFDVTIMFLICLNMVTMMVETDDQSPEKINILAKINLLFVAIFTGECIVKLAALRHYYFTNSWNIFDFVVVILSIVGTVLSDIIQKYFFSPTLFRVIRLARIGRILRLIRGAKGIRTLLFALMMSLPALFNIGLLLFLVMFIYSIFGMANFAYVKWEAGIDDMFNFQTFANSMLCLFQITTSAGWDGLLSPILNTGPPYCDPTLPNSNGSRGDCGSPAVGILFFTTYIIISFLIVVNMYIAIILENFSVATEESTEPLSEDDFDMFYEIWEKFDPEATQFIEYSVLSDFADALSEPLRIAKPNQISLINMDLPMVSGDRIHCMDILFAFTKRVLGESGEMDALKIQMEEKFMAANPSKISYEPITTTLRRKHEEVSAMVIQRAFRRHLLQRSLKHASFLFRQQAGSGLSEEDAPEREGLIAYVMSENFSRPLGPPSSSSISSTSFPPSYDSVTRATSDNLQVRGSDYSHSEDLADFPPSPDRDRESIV

Row | Compound | inhibition at 3 µM [1, 2] [%] | inhibition at 3 µM [1, 3] [%] | inhibition at 10 µM (hNaV1.2 (SCN2A)) [%]
1 | FC(F)(F)Oc1ccc(-c2ccc3onc(OCCn4cncn4)c3c2)cc1 [Example 58, 3-(2-(1H-1,2,4-triazol-1-yl)ethoxy)-5-(4-(trifluoromethoxy)phenyl)benzo[d]isoxazole] | 22.2 | < 5 | 14.5
2 | O=C1CCCN1CCOc1noc2ccc(-c3ccc(OC(F)(F)F)cc3)cc12 [Example 59, 1-(2-((5-(4-(trifluoromethoxy)phenyl)benzo[d]isoxazol-3-yl)oxy)ethyl)pyrrolidin-2-one] | 19 | < 5 | 37.4
3 | COCCOc1noc2ccc(-c3ccc(OC(F)(F)F)cc3)cc12 [Example 60, 3-(2-methoxyethoxy)-5-(4-(trifluoromethoxy)phenyl)benzo[d]isoxazole] | 30.6 | < 5 | < 5
4 | COc1ccnc(COc2noc3ccc(-c4ccc(OC(F)(F)F)cc4)cc23)n1 [Example 67, 3-((4-methoxypyrimidin-2-yl)methoxy)-5-(4-(trifluoromethoxy)phenyl)benzo[d]isoxazole] | 48.7 | < 5 | < 5
5 | CC(COc1noc2ccc(-c3ccc(OC(F)(F)F)cc3)cc12)n1cccn1 (stereo not drawn) [Example 68, 3-(2-(1H-pyrazol-1-yl)propoxy)-5-(4-(trifluoromethoxy)phenyl)benzo[d]isoxazole] | 10.5 | < 5 | < 5
6 | CN1CCC[C@H]1COc1noc2ccc(-c3ccc(OC(F)(F)F)cc3)cc12 [Example 71, (S)-3-((1-methylpyrrolidin-2-yl)methoxy)-5-(4-(trifluoromethoxy)phenyl)benzo[d]isoxazole] | 61.1 | 44.4 | 89.6
7 | O=C1NCC[C@H]1Oc1noc2ccc(-c3ccc(OC(F)(F)F)cc3)cc12 [Example 72, (R)-3-((5-(4-(trifluoromethoxy)phenyl)benzo[d]isoxazol-3-yl)oxy)pyrrolidin-2-one] | 17.7 | 10.8 | 75.4
8 | Cc1cnc(COc2noc3ccc(-c4ccc(OC(F)(F)F)cc4)cc23)cn1 [Example 73, 3-((5-methylpyrazin-2-yl)methoxy)-5-(4-(trifluoromethoxy)phenyl)benzo[d]isoxazole] | 41.9 | < 5 | < 5
9 | FC(F)(F)Oc1ccc(-c2ccc3onc(OCc4cccnn4)c3c2)cc1 [Example 74, 3-(pyridazin-3-ylmethoxy)-5-(4-(trifluoromethoxy)phenyl)benzo[d]isoxazole] | 23.5 | < 5 | < 5
10 | O=C1OCCN1CCOc1noc2ccc(-c3ccc(OC(F)(F)F)cc3)cc12 [Example 75, 3-(2-((5-(4-(trifluoromethoxy)phenyl)benzo[d]isoxazol-3-yl)oxy)ethyl)oxazolidin-2-one] | 36.9 | < 5 | 27.1
11 | Cc1cc(-c2ccc(OC(F)(F)F)cc2)cc2c(OCc3cn(C)nn3)noc12 [Example 87, 7-methyl-3-((1-methyl-1H-1,2,3-triazol-4-yl)methoxy)-5-(4-(trifluoromethoxy)phenyl)benzo[d]isoxazole] | 54.7 | 39 | 87
12 | Fc1cccnc1COc1noc2ccc(-c3ccc(OC(F)(F)F)cc3)cc12 [Example 94, 3-((3-fluoropyridin-2-yl)methoxy)-5-(4-(trifluoromethoxy)phenyl)benzo[d]isoxazole] | 17.1 | < 5 | < 5
13 | FC(F)(F)Oc1ccc(-c2ccc3onc(OCc4nnc(C5CC5)o4)c3c2)cc1 [Example 96, 3-((5-cyclopropyl-1,3,4-oxadiazol-2-yl)methoxy)-5-(4-(trifluoromethoxy)phenyl)benzo[d]isoxazole] | 29.4 | < 5 | 5.7
14 | Cc1nnc(COc2noc3ccc(-c4ccc(OC(F)(F)F)cc4)cc23)o1 [Example 99, 3-((5-methyl-1,3,4-oxadiazol-2-yl)methoxy)-5-(4-(trifluoromethoxy)phenyl)benzo[d]isoxazole] | 55.6 | < 5 | 50.5
15 | CC(C)c1nnc(COc2noc3ccc(-c4ccc(OC(F)(F)F)cc4)cc23)o1 [Example 100, 3-((5-isopropyl-1,3,4-oxadiazol-2-yl)methoxy)-5-(4-(trifluoromethoxy)phenyl)benzo[d]isoxazole] | 23.5 | < 5 | 11
16 | Cc1nnc(COc2noc3ccc(-c4ccc(OC(F)(F)F)cc4)cc23)s1 [Example 101, 3-((5-methyl-1,3,4-thiadiazol-2-yl)methoxy)-5-(4-(trifluoromethoxy)phenyl)benzo[d]isoxazole] | 13.5 | < 5 | 30.5
17 | Cc1cc(COc2noc3ccc(-c4ccc(OC(F)(F)F)cc4)cc23)on1 [Example 102, 3-((3-methylisoxazol-5-yl)methoxy)-5-(4-(trifluoromethoxy)phenyl)benzo[d]isoxazole] | 27.8 | 7.7 | 20.6
18 | N#CCOc1noc2ccc(-c3ccc(OC(F)(F)F)cc3)cc12 [Example 103, 2-((5-(4-(trifluoromethoxy)phenyl)benzo[d]isoxazol-3-yl)oxy)acetonitrile] | 18.8 | < 5 | < 5
19 | Fc1cc(-c2ccc(OC(F)(F)F)cc2)cc2c(OCc3nnc(C4CC4)o3)noc12 [Example 104, 3-((5-cyclopropyl-1,3,4-oxadiazol-2-yl)methoxy)-7-fluoro-5-(4-(trifluoromethoxy)phenyl)benzo[d]isoxazole] | 23.6 | 19.8 | 57
20 | Cc1cc(-c2ccc(OC(F)(F)F)cc2)cc2c(OCc3nnc(C4CC4)o3)noc12 [Example 105, 3-((5-cyclopropyl-1,3,4-oxadiazol-2-yl)methoxy)-7-methyl-5-(4-(trifluoromethoxy)phenyl)benzo[d]isoxazole] | 9.4 | 27.8 | 70.9
21 | CC(=O)N1CCC[C@H]1COc1noc2ccc(-c3ccc(OC(F)(F)F)cc3)cc12 [Example 109, (S)-1-(2-(((5-(4-(trifluoromethoxy)phenyl)benzo[d]isoxazol-3-yl)oxy)methyl)pyrrolidin-1-yl)ethan-1-one] | 14.5 | < 5 | 39.3
22 | CC(=O)N1CC(COc2noc3ccc(-c4ccc(OC(F)(F)F)cc4)cc23)C1 [Example 110, 1-(3-(((5-(4-(trifluoromethoxy)phenyl)benzo[d]isoxazol-3-yl)oxy)methyl)azetidin-1-yl)ethan-1-one] | 14.5 | 11.5 | 67.3
23 | CC(C)(C)OC(=O)N1CCOC[C@H]1COc1noc2ccc(-c3ccc(OC(F)(F)F)cc3)cc12 [Example 111, tert-butyl(S)-3-(((5-(4-(trifluoromethoxy)phenyl)benzo[d]isoxazol-3-yl)oxy)methyl)morpholine-4-carboxylate] | < 5 | 7.3 | 47.3
24 | FC(F)(F)Oc1ccc(-c2ccc3onc(OC[C@@H]4COCCN4)c3c2)cc1 [Example 113, (S)-3-(morpholin-3-ylmethoxy)-5-(4-(trifluoromethoxy)phenyl)benzo[d]isoxazole] | 54.3 | 37.3 | 91.2
